Literature values as cited in patent publication US20010034023A1, “Gene sequence variations with utility in determining the treatment of disease, in genes relating to drug processing” (priority 1999, published 2001).
Structures can show the parent of a compound that is named as a salt.

Tests used:
[1] = high dose
[2] = PDR
[3] = not given; remark: listed apart in the source
[4] = system: hepatitis C virus infection
[5] = Alzheimer's patients receiving Cognex

For `O=c1[nH]cc(F)c(=O)[nH]1` [5-fluorouracil], which “patients with an objective response to the drug” value (advanced colorectal cancer) is on record?
Its value is 20-40%.

And the “patients with a complete response (complete tumor disappearance)” value (advanced colorectal cancer, of the objective responders)?
Its value is 1-5%.

And the “patients suffering serious gastrointestinal or hematopoietic toxicity” value (up to, depending on the regimen)?
Its value is 20-30%.

For `CC(=O)Nc1ccc(O)cc1` [Acetominophen], which “dose required for significant liver injury to occur” value [1] is on record?
Its value is 10-15 grams.

Which “patients showing no change or minimal worsening of their disease” value ([2]; Alzheimer's disease patients receiving Cognex) does the source give for `Nc1c2c(nc3ccccc13)CCCC2` [Cognex, tacrine hydrochloride] here?
Its value is “about 45%”.

What about the patients minimally improved [2, 5] of the same compound?
The patients minimally improved was “About 58%”.

And the patients much improved [2, 5]?
Its patients much improved is “about 2%”.

With `NNC(=O)c1ccncc1` [INH, Isoniazid] as the compound, how does the “persons in whom subclinical liver injury occurs” value ([3]; persons taking INH) read?
Its value is 10-20%.

What about the “hepatotoxicity in slow acetylators” value ([3]; slow acetylators) of the same compound?
The value was “more hepatotoxic”.

Which “patients in whom viral infection is completely and permanently eliminated” value [4] does the source give for interferon alpha here?
The value was “less than a quarter of patients”.

And the “patients receiving virtually no benefit” value [4]?
Its value is “Nearly half of patients”.
